{"source": "patent US20230293407A1", "about": "“Compositions Comprising (Bio)-Alkanediols with Antimicrobials for Product Protection” (Symrise AG, priority 2020, published 2023)", "assay_in_all_cases": "preservation efficacy test (PET), European Pharmacopoeia 5.1.3", "assay_type_in_all_cases": "cell-based", "key": {"[1]": {"system": "Aspergillus brasiliensis", "conditions": "for AB germ count, 7 days / AB germ count, 14 days / AB germ count, 28 days: substance at given % in test formulation"}, "[2]": {"system": "Staphylococcus aureus"}, "[3]": {"system": "Escherichia coli"}, "[4]": {"system": "Candida albicans", "conditions": "for count at 14 days / CA germ count, 14 days: 14 days after inoculation"}, "[5]": {"system": "Pseudomonas aeruginosa", "conditions": "for PA germ count, 2 days / PA germ count, 7 days / PA germ count, 14 days / PA germ count, 28 days: substance at given % in test formulation"}, "[6]": {"conditions": "AB, 28 days after inoculation, use concentration in label"}, "[7]": {"conditions": "SA, 2 days after inoculation, use concentration in label"}, "[8]": {"conditions": "SA, 7 days after inoculation, use concentration in label"}, "[9]": {"conditions": "SA, 14 days after inoculation, use concentration in label"}, "[10]": {"conditions": "SA, 28 days after inoculation, use concentration in label"}, "[11]": {"conditions": "EC, 2 days after inoculation, use concentration in label"}, "[12]": {"conditions": "EC, 7 days after inoculation, use concentration in label"}, "[13]": {"conditions": "EC, 14 days after inoculation, use concentration in label"}, "[14]": {"conditions": "EC, 28 days after inoculation, use concentration in label"}, "[15]": {"conditions": "CA, 2 days after inoculation, use concentration in label"}, "[16]": {"conditions": "CA, 7 days after inoculation, use concentration in label"}, "[17]": {"conditions": "CA, 28 days after inoculation, use concentration in label"}, "[18]": {"conditions": "PA, 2 days after inoculation, use concentration in label"}, "[19]": {"conditions": "PA, 7 days after inoculation, use concentration in label"}, "[20]": {"conditions": "PA, 14 days after inoculation, use concentration in label"}, "[21]": {"conditions": "PA, 28 days after inoculation, use concentration in label"}, "[22]": {"conditions": "2 days after inoculation, substance at given % in test formulation"}, "[23]": {"conditions": "7 days after inoculation, substance at given % in test formulation"}, "[24]": {"conditions": "14 days after inoculation, substance at given % in test formulation"}, "[25]": {"conditions": "28 days after inoculation, substance at given % in test formulation"}, "[26]": {"conditions": "substance at given % in test formulation"}}, "note": "Where two headings read alike, the source gives them in different places."}
{"smiles": "O=P(O)(O)O[C@H]1[C@H](OP(=O)(O)O)[C@@H](OP(=O)(O)O)[C@H](OP(=O)(O)O)[C@@H](OP(=O)(O)O)[C@H]1OP(=O)(O)O", "note": "[0.4% phytic acid]", "values": [{"measurement": "count at 2 days", "setting": "[1]; AB, 2 days after inoculation, use concentration in label", "result": 510.000}, {"measurement": "count at 7 days", "setting": "[1]; AB, 7 days after inoculation, use concentration in label", "result": 290.000}, {"measurement": "count at 14 days", "setting": "[1]; AB, 14 days after inoculation, use concentration in label", "result": 180.000}, {"measurement": "count at 28 days", "setting": "[1]; [6]", "result": 150.000}, {"measurement": "count at 2 days", "setting": "[2]; [7]", "result": 1}, {"measurement": "count at 7 days", "setting": "[2]; [8]", "result": 1}, {"measurement": "count at 14 days", "setting": "[2]; [9]", "result": 1}, {"measurement": "count at 28 days", "setting": "[2]; [10]", "result": 1}, {"measurement": "count at 2 days", "setting": "[3]; [11]", "result": 1}, {"measurement": "count at 7 days", "setting": "[3]; [12]", "result": 1}, {"measurement": "count at 14 days", "setting": "[3]; [13]", "result": 1}, {"measurement": "count at 28 days", "setting": "[3]; [14]", "result": 1}, {"measurement": "count at 2 days", "setting": "[4]; [15]", "result": 640.000}, {"measurement": "count at 7 days", "setting": "[4]; [16]", "result": 550.000}, {"measurement": "count at 14 days", "setting": "[4]; CA, use concentration in label", "result": 570.000}, {"measurement": "count at 28 days", "setting": "[4]; [17]", "result": 520.000}, {"measurement": "count at 2 days", "setting": "[5]; [18]", "result": 1}, {"measurement": "count at 7 days", "setting": "[5]; [19]", "result": 1}, {"measurement": "count at 14 days", "setting": "[5]; [20]", "result": 1}, {"measurement": "count at 28 days", "setting": "[5]; [21]", "result": 1}]}
{"smiles": "CC(=O)CCc1ccc(OCCO)cc1", "note": "[0.4% Hydroxyethoxyphenyl Butanone]", "values": [{"measurement": "count at 28 days", "setting": "[1]; [6]", "result": 810.000}, {"measurement": "count at 2 days", "setting": "[2]; [7]", "result": 39.000}, {"measurement": "count at 7 days", "setting": "[2]; [8]", "result": 1}, {"measurement": "count at 14 days", "setting": "[2]; [9]", "result": 1}, {"measurement": "count at 28 days", "setting": "[2]; [10]", "result": 1}, {"measurement": "count at 2 days", "setting": "[3]; [11]", "result": 200}, {"measurement": "count at 7 days", "setting": "[3]; [12]", "result": 1}, {"measurement": "count at 14 days", "setting": "[3]; [13]", "result": 1}, {"measurement": "count at 28 days", "setting": "[3]; [14]", "result": 1}, {"measurement": "count at 2 days", "setting": "[4]; [15]", "result": 95.000}, {"measurement": "count at 7 days", "setting": "[4]; [16]", "result": 1}, {"measurement": "count at 14 days", "setting": "[4]; CA, use concentration in label", "result": 490}, {"measurement": "count at 28 days", "setting": "[4]; [17]", "result": 450}, {"measurement": "count at 2 days", "setting": "[5]; [18]", "result": 1}, {"measurement": "count at 7 days", "setting": "[5]; [19]", "result": 1}, {"measurement": "count at 14 days", "setting": "[5]; [20]", "result": 1}, {"measurement": "count at 28 days", "setting": "[5]; [21]", "result": 1}]}
{"smiles": "O=C([O-])c1ccccc1.[Na+]", "note": "[0.2% Sodium Benzoate]", "values": [{"measurement": "count at 2 days", "setting": "[1]", "result": 760.000}, {"measurement": "count at 7 days", "setting": "[1]", "result": 880.000}, {"measurement": "count at 14 days", "setting": "[1]", "result": 200.000}, {"measurement": "count at 28 days", "setting": "[1]", "result": 230.000}, {"measurement": "count at 2 days", "setting": "[2]", "result": 320.000}, {"measurement": "count at 7 days", "setting": "[2]", "result": 74.000}, {"measurement": "count at 14 days", "setting": "[2]", "result": 1}, {"measurement": "count at 28 days", "setting": "[2]", "result": 1}, {"measurement": "count at 2 days", "setting": "[3]", "result": 130.000}, {"measurement": "count at 7 days", "setting": "[3]", "result": 11.000}, {"measurement": "count at 14 days", "setting": "[3]", "result": 1}, {"measurement": "count at 28 days", "setting": "[3]", "result": 1}, {"measurement": "count at 7 days", "setting": "[4]", "result": 250.000}, {"measurement": "count at 28 days", "setting": "[4]", "result": 1}, {"measurement": "count at 2 days", "setting": "[5]", "result": 1}, {"measurement": "count at 7 days", "setting": "[5]", "result": 1}, {"measurement": "count at 14 days", "setting": "[5]", "result": 1}, {"measurement": "count at 28 days", "setting": "[5]", "result": 1}]}
{"smiles": "CC(=O)c1ccc(O)cc1", "note": "[0.1% 4-Hydroxyacetophenone (SymSave H)]", "values": [{"measurement": "AB germ count, 7 days", "setting": "[1]; 7 days after inoculation", "result": 680.000}, {"measurement": "AB germ count, 14 days", "setting": "[1]; 14 days after inoculation", "result": 58.000}, {"measurement": "AB germ count, 28 days", "setting": "[1]; 28 days after inoculation", "result": 18.000}, {"measurement": "SA germ count, 2 days", "setting": "[2]; [22]", "result": 210.000}, {"measurement": "SA germ count, 7 days", "setting": "[2]; [23]", "result": 1}, {"measurement": "SA germ count, 14 days", "setting": "[2]; [24]", "result": 1}, {"measurement": "SA germ count, 28 days", "setting": "[2]; [25]", "result": 1}, {"measurement": "EC germ count, 7 days", "setting": "[3]; [23]", "result": 87.000}, {"measurement": "EC germ count, 14 days", "setting": "[3]; [24]", "result": 2.400}, {"measurement": "EC germ count, 28 days", "setting": "[3]; [25]", "result": 1}, {"measurement": "CA germ count, 7 days", "setting": "[4]; [23]", "result": 81.000}, {"measurement": "CA germ count, 14 days", "setting": "[4]; [26]", "result": 120}, {"measurement": "CA germ count, 28 days", "setting": "[4]; [25]", "result": 1}, {"measurement": "PA germ count, 2 days", "setting": "[5]; 2 days after inoculation", "result": 1}, {"measurement": "PA germ count, 7 days", "setting": "[5]; 7 days after inoculation", "result": 1}, {"measurement": "PA germ count, 14 days", "setting": "[5]; 14 days after inoculation", "result": 1}, {"measurement": "PA germ count, 28 days", "setting": "[5]; 28 days after inoculation", "result": 1}]}
{"smiles": "CCOC(=O)c1ccc(O)cc1", "note": "[0.1% Ethylparaben]", "values": [{"measurement": "AB germ count, 7 days", "setting": "[1]; 7 days after inoculation", "result": 630.000}, {"measurement": "AB germ count, 14 days", "setting": "[1]; 14 days after inoculation", "result": 800.000}, {"measurement": "AB germ count, 28 days", "setting": "[1]; 28 days after inoculation", "result": 730.000}, {"measurement": "SA germ count, 7 days", "setting": "[2]; [23]", "result": 38.000}, {"measurement": "SA germ count, 14 days", "setting": "[2]; [24]", "result": 1}, {"measurement": "SA germ count, 28 days", "setting": "[2]; [25]", "result": 1}, {"measurement": "EC germ count, 2 days", "setting": "[3]; [22]", "result": 440.000}, {"measurement": "EC germ count, 7 days", "setting": "[3]; [23]", "result": 62.000}, {"measurement": "EC germ count, 14 days", "setting": "[3]; [24]", "result": 280}, {"measurement": "EC germ count, 28 days", "setting": "[3]; [25]", "result": 390}, {"measurement": "CA germ count, 2 days", "setting": "[4]; [22]", "result": 380.000}, {"measurement": "CA germ count, 7 days", "setting": "[4]; [23]", "result": 200.000}, {"measurement": "CA germ count, 14 days", "setting": "[4]; [26]", "result": 170.000}, {"measurement": "CA germ count, 28 days", "setting": "[4]; [25]", "result": 260.000}, {"measurement": "PA germ count, 2 days", "setting": "[5]; 2 days after inoculation", "result": 1}, {"measurement": "PA germ count, 7 days", "setting": "[5]; 7 days after inoculation", "result": 1}, {"measurement": "PA germ count, 14 days", "setting": "[5]; 14 days after inoculation", "result": 1}, {"measurement": "PA germ count, 28 days", "setting": "[5]; 28 days after inoculation", "result": 1}]}
